IC50 and Drug uptake data for 5 molecules are collected here from ChEMBL document CHEMBL5236666, “Investigation of mitochondrial targeting ability of sydnones and sydnonimines and mitochondria-targeted delivery of celecoxib” (Bioorg Med Chem Lett, 2023).

Structures are written as SMILES.

For series [1], the system named is HeLa. The experiment in a line: Cytotoxicity against human HeLa cells assessed as inhibition of cell proliferation in presence of 100 uM of DIBAC. It counts as functional, cell-based.
Series [2] concerns HepG2. The experiment in a line: Cytotoxicity against human HepG2 cells assessed as inhibition of cell proliferation in presence of 100 uM of DIBAC. It counts as functional, cell-based.
Series [3] concerns HeLa. The experiment in a line: Cytotoxicity against human HeLa cells assessed as inhibition of cell proliferation. It counts as functional, cell-based.
Series [4] deals with HepG2. Nature of the series: Cytotoxicity against human HepG2 cells assessed as inhibition of cell proliferation. It is filed as functional, cell-based.
The nature of series [5]: Drug uptake in human HeLa cells assessed as increase in colocalization by measuring fluorescence intensity at 5 uM incubated for 30 mins. It counts as ADME, cell-based. Particulars: 0.5 h; call rule not given here.
Series [6] can be described thus: Drug uptake in mitochondria of human HeLa cells incubated for 30 mins. It is filed as ADME. Particulars: 0.5 h.

For the molecule `CCOC(=O)c1ccc(-[n+]2cc([N-]S(=O)(=O)c3ccc(-n4nc(C(F)(F)F)cc4-c4ccc(C)cc4)cc3)on2)cc1`, the IC50 in the series with HeLa [1] is 85.3 µM; in the series on HepG2 [2], 66.2 µM; with HeLa [3], above 100 µM; in the series on HepG2 [4] it was above 100 µM.

On to `O=C(NCCCNC(=O)c1ccc(-[n+]2cc([O-])on2)cc1)OCC1C[C@@H]2C=C[C@H]1C2` (some centres undefined), for which the Drug uptake entry in series [5] was “Active”. Take `CC1=CC(C)=[N+]2C1=Cc1ccc(CCC(=O)NCCCNC(=O)c3ccc(-[n+]4cc(O)on4)cc3)n1[B-]2(F)F`: the Drug uptake result in series [6] is listed as “Active”. Same read-out and setting: as for `CC1=CC(C)=[N+]2C1=Cc1ccc(CCC(=O)NCCCNC(=O)c3ccc(-[n+]4noc(O)c4-c4ccccc4)cc3)n1[B-]2(F)F`, the entry is “Not Active”. Take `Cc1ccc(-c2cc(C(F)(F)F)nn2-c2ccc(S(N)(=O)=O)cc2)cc1` [CELECOXIB]: the IC50 in the series on HeLa [3] turned out to be 32.7 µM; in the series on HepG2 [4] it was 43.6 µM.

As usually defined, the IC50 is the point on the concentration scale where inhibition reaches its midpoint.
